Here are results for one molecule from US6989396B2, “Tropane alkaloid multidrug resistance inhibitors from Erythroxylum pervillei and use of the same” (The Board of Trustees of the University of Illinois, priority 2001, dated 2006).

In data set [1] the target is T1, Pgp (KB-V1 cell membrane vesicles) (Homo sapiens, UniProt P08183).
T1 construct: Cell membrane vesicles were prepared from KB-V1 cells following literature procedures; endogenous in cells; host or cells: KB-V1 cells (vinblastine-selected multidrug-resistant KB line); plasma membrane vesicles
T1 sequence (P08183 whole entry): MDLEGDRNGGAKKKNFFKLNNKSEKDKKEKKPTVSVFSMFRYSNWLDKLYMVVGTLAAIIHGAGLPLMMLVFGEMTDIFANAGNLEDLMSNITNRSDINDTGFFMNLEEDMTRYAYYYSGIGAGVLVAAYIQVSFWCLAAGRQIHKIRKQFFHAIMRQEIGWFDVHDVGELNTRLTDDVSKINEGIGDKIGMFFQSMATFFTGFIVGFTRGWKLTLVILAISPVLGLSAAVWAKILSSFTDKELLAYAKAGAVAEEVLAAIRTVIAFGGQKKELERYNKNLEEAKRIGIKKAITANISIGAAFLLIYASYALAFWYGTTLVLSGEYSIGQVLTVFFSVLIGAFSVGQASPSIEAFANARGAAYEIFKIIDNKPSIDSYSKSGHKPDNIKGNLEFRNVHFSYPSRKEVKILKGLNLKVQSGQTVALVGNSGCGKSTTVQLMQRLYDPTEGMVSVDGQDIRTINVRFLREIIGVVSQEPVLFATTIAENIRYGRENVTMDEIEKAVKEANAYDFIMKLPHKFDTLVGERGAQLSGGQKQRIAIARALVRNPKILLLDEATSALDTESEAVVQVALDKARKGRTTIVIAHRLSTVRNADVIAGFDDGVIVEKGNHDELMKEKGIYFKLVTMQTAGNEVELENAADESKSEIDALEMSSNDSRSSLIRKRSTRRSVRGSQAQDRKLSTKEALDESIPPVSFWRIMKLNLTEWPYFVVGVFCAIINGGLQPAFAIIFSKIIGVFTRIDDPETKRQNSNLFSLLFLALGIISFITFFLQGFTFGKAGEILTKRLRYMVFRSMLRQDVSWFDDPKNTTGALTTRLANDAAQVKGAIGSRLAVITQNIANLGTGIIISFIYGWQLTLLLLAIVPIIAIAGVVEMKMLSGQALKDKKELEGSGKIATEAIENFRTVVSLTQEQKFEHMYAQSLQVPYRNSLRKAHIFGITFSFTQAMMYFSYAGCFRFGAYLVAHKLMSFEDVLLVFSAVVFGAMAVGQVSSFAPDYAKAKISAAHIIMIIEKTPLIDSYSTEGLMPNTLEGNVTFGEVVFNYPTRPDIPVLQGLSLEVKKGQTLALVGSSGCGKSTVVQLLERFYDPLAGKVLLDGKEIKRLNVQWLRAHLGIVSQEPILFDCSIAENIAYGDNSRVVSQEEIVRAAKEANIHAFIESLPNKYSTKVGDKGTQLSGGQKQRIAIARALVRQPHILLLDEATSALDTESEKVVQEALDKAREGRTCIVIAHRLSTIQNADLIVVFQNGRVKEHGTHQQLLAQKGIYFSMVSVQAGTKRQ
Kind of data set: [3H]Vinblastine accumulation with KB-V1 cell membrane vesicles. Type of data set: binding. On the procedure:
[^3H]Vinblastine accumulation with KB-V1 vesicles. Cell membrane vesicles were prepared from KB-V1 cells following literature procedures (31, 32) with some modifications. Medium was removed from KB-V1 cells in log growth phase (about 80% confluence) and the cells were rinsed with ice-cold PBS followed by ice-cold PBS containing 2 mM EDTA. Aprotinin (1 mg/ml) was then added, and, after a 10 minutes incubation at room temperature, the cells were harvested by gentle aspiration with a serological pipette and collected by centrifugation (100×g for 5 minutes). The cells were suspended in 0.25 M sucrose buffer (0.01 M Tris-HCl, pH 7.5, containing 0.25 M sucrose, 0.2 mM CaCl2, 1 mM EDTA) and homogenized with a Polytron at 2,500 rpm for 30 seconds. […] The homogenate then was diluted with four volumes of 0.025 M sucrose solution (0.01 M Tris-HCl, pH 7.5, containing 0.025 M sucrose) and centrifuged (1,000×g for 10 minutes). […] The interface (about 5 ml) was collected and diluted with four volumes of 0.25 M sucrose, 0.01 M Tris-HCl, pH 7.5, and centrifuged at 100,000×g for 1 hour. The resulting vesicle pellet was suspended in PBS containing 1 mM phenylmethylsulfonyl fluoride, using a 25-gauge needle, and stored at −80° C. Protein content was determined using a bicinchoninic acid protein assay kit with BSA as a standard (33).
Vinblastine accumulation with membrane vesicles assays were performed in 96-well plates as described previously (23, 24). […] Various concentrations of test samples, dissolved in 5 μl of DMSO, were then added (final volume, 100 μl), and incubations were conducted at ambient temperature for 20 minutes. For kinetic studies, various concentrations of [^3H]vinblastine were used. Reactions were terminated by aspirating the contents of each well onto a glass filter filter (printed type A filtermats, Wallac) using a 96-well harvester (Harvester 96, Tomtec). […] Nonspecific binding was determined by performing similar incubations with reaction mixtures containing a 1,000-fold excess of unlabeled vinblastine. Nonspecific binding was subtracted from all total-binding data to yield specific binding.

The subject of data set [2] is SW626, human ovarian adenocarcinoma. Kind of data set: In vitro cytotoxicity, human tumor panel: SW626. Type of data set: cell-based. As to conditions: SW626, read-out: ED50 SW626. As for the experimental part: (§1) Cytotoxicity assay. Compounds 1–9 were evaluated for cytotoxic activity against a panel of human cancer cell lines, including KB-V1 in the presence and absence of VLB, according to an established protocol (68).

In a further data set the test system is MDR1 mRNA. Kind of data set: RT-PCR analysis of MDR1 mRNA expression. Type of data set: cell-based, human. Particulars: KB-V1 and CEM/VLB100 cells, 72 hours; pervilleine A up to 34 μM (up to 45 μM), verapamil up to 44 μM. As for the experimental part:
RT-PCR analysis of MDR1 mRNA expression. […] Total RNA was isolated from cultured KB-3, KB-V1, CEM and CEM/VLB100 cells with TRIzol reagent (Life Technologies, Inc.) (33), and quantified by UV absorbance. The reverse transcription of RNA was performed by using the SUPERScript™ Preamplification System (Life Technologies, Inc.) in a final volume of 21 μl containing 5×First Strain Synthesis Buffer, 2.5 mM MgCl2, 0.5 mM each dNTP, […], 2 units of RNAse inhibitor, 200 units of Super-Scrip II reverse transcriptase, 0.5 μg oligo (dT)12-18, 2 μg of total RNA (3 μg for CEM and CEM/VLB100 cells), and DEPC-treated water. After incubation at 42° C. for 50 minutes, the room temperature reaction was terminated by heating to 70° C. for 15 minutes. To the newly synthesized cDNA (2 μl), a PCR mixture containing 1.4 mM MgCl2 (1.2 mM for CEM and CEM/VLB100 cells), 2.5 units of Taq polymerase, 0.2 μmol (0.6 μmol for CEM and CEM/VLB100 cells) of primers based on the MDR1 gene (35) and custom synthesized by Ana-Gen Technology, Inc. (Palo Alto, Calif.) (5′-[…]-3′; 5′-[…]-3′) (35). As an internal control, 0.125 μmol (0.1 μmol for CEM and CEM/VLB100 cells) of primers for GAPDH (5′-[…]-3′; 5′-[…]-3′) (36) were added (final volume to 50 μl). […]

The subject of a further data set is MDR1 (Pgp) expression. Kind of data set: Western blot analysis of MDR1 expression. Type of data set: cell-based, human. Particulars: KB-V1 and CEM/VLB100 cells, 72 hours; pervilleine A up to 45 μM, verapamil up to 44 μM. On the procedure: Western blot analysis of MDR1 expression. […] Cells (7.5×10^5 cells as starting cell amount) were harvested using SDS lysis buffer [20 mM Tris-HCl (pH 6.8) containing 0.4% SDS (w/v), 5% glycerol (v/v), 0.006% bromophenol blue, 2% β-mer-captoethanol], and lysates were boiled for 10 minutes and stored at −20° C. Aliquots of lysates were used for protein determinations (bicinchoninic acid protein assay kit with BSA as standard), and equivalent amounts of protein were electrophoresed by SDS-PAGE with precast 7.5% Tris-glycine acrylamide gels (Novex, San Diego, Calif.). Following transfer to polyvinylidene difluoride membranes, nonspecific binding sites were blocked with 5% nonfat dry milk. Blotting was performed with rabbit polyclonal antibody mdr (Ab-1) (Oncogene Research Products, Inc.) and analyzed by streptavidin horseradish peroxidase-conjugated secondary antibody (Amersham Life Science) and visualized using a ECL western blotting detection system (Amersham Life Science).

The test system of data set [3] is LNCaP, hormone-dependent prostate cancer. Kind of data set: In vitro cytotoxicity, human tumor panel: LNCaP. Format: cell-based. Particulars: Homo sapiens, LNCaP, read-out: ED50 LNCaP. As for the experimental part:
as §1

The subject of data set [4] is KB, oral epidermoid carcinoma. Kind of data set: In vitro cytotoxicity, human tumor panel: KB. Format: cell-based. As to conditions: Homo sapiens, read-out: ED50 KB. As for the experimental part:
as §1

For orientation: Ki means a dissociation constant, usually derived from enzyme kinetics or from competition with a known ligand.

“And” between values parts separate entries of the source, which are not always exact repeats. Identical values can stand only once. “Also recorded” adds a separate entry of the source. Where only a bound is given, the exact number is not on record here.

`COc1cc(C=CC(=O)O[C@H]2[C@@H](O)[C@@H]3C[C@H](OC(=O)c4cc(OC)c(OC)c(OC)c4)C[C@H]2N3C)cc(OC)c1OC` [Compound 3, 3α-(3,4,5-trimethoxybenzoyloxy)-6β-(3,4,5-trimethoxycinnamoyloxy)-7β-hydroxytropane]: the “fold reduction of [3H]vinblastine accumulation” value in data set [1] (0–100 μM, 0.16 μM [3H]vinblastine) is reported as “about 65 fold”. For the same molecule, the IC50 is 3.84 µM in data set [1] (0.16 μM [3H]vinblastine, 0.5 mM ATP, 20 minutes, ambient temperature); greater than 20 µg/mL in data set [2]; greater than 20 µg/mL in data set [3]; greater than 20 µg/mL in data set [4]. For the same molecule, the Ki in data set [1] (double-reciprocal plots, 0.015–0.16 μM [3H]vinblastine, read-out: Ki, competitive with respect to vinblastine binding) was ~7.3 µM and 7.3 µM. The “mode of inhibition of vinblastine accumulation” value in data set [1] (kinetic analysis, double-reciprocal plots) was “competitive inhibition”. In addition, the “effect on MDR1 mRNA (transcription of MDR1)” value in the data set on MDR1 mRNA is “no significant effect; also recorded: did not significantly alter; also recorded: did not significantly affect”. Also, the “effect on levels of Pgp (MDR1 protein expression)” value in the data set with MDR1 (Pgp) expression is reported as “did not alter expression levels; also recorded: did not significantly alter; also recorded: did not significantly affect”.
